How the values were obtained:
[1] = test system: AMBEL (Ambrosia artemisifolia); assay: Preemergence herbicidal evaluation; type: in vivo, L.; details: rated 4-5 weeks after treatment
In short: (§1)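 Steps: mix seeds with potting soil; plant on ~1 inch soil per cup; spray compound in aqueous acetone; hold on greenhouse benches with routine watering; rate 0–9 visually against control at 4–5 weeks.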

[2] = test system: CHEAL (Chenopodium album); assay: Preemergence herbicidal evaluation; type: in vivo, L.; details: rated 4-5 weeks after treatment
In short: as §1

[3] = test system: CASOB (Cassia obtusifolia); assay: Preemergence herbicidal evaluation; type: in vivo, L.; details: rated 4-5 weeks after treatment
In short: as §1

[4] = test system: ABUTH (Abutilon theophrasti); assay: Preemergence herbicidal evaluation; type: in vivo, Medic.; details: rated 4-5 weeks after treatment
ORYSAT (Rice, Tebonnet) [5] = assay: Postemergence herbicidal evaluation; type: in vivo, Oryza sativa, (L.) Tebonnet; details: postemergence
In short: (§2)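 Visual 0–9 injury scores versus control plants, covering stand, vigour, malformation, size, chlorosis and general appearance, taken four to five weeks post-spray and averaged over replicate tests. Plants were sprayed at roughly two weeks old and held on greenhouse benches.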

[6] = test system: IPOHE (Ipomoea hederacea); assay: Postemergence herbicidal evaluation; type: in vivo, (L.) Jacq.; details: postemergence
In short: as §2

[7] = test system: GLXMAW (Soybean, Williams); assay: Preemergence herbicidal evaluation; type: in vivo, Glycine max, (L.) Merr. cv Williams; details: rated 4-5 weeks after treatment
CYPIR (Cyperus iria) = assay: Flooded paddy, preemergence weed control; type: in vivo; details: rated 3-4 weeks after treatment, 0-9 rating scale
In short: (§3)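 Seeds or propagating organs were sown in the top 0.5 cm of silt loam soil, flooded, and the water kept 1.5 to 3 cm above the soil surface throughout. Plants were grown in the greenhouse and rated visually on a 0-9 scale against a control.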

[8] = test system: TRZAWR (Wheat, Winter, cv Riband); assay: Preemergence herbicidal evaluation; type: in vivo, Triticum aestivum; details: rated 4-5 weeks after treatment
In short: as §1

[9] = test system: GLXMAW (Soybean, Williams); assay: Postemergence herbicidal evaluation; type: in vivo, Glycine max, (L.) Merr. cv Williams; details: postemergence
In short: as §2

[10] = test system: ABUTH (Abutilon theophrasti); assay: Postemergence herbicidal evaluation; type: in vivo, Medic.; details: postemergence
In short: as §2

[11] = test system: MOOVA (Monochoria vaginalis); assay: Flooded paddy, preemergence weed control; type: in vivo, Presl.; details: rated 3-4 weeks after treatment, 0-9 rating scale
In short: as §3

[12] = test system: IPOHE (Ipomoea hederacea); assay: Preemergence herbicidal evaluation; type: in vivo, (L.) Jacq.; details: rated 4-5 weeks after treatment
ZEAMX (Corn, Field) = assay: Preemergence herbicidal evaluation; type: in vivo, Zea mays, L.; details: rated 4-5 weeks after treatment
ORYSAT (Rice, Tebonnet) [13] = assay: Flooded paddy, post-transplant rice tolerance; type: in vivo, Oryza sativa, (L.) Tebonnet; details: flooded paddy, post-transplant rice, rated 3-4 weeks after treatment, 0-9 rating scale
In short: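 Steps: transplant two ten-day-old seedlings into silt loam; flood to 1.5-3 cm above soil; apply herbicide post-transplant; maintain water on greenhouse benches; rate stand, vigor, malformation, size and chlorosis on a 0-9 visual scale versus control.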

[14] = test system: ECHCG (Echinochloa crus-galli); assay: Preemergence herbicidal evaluation; type: in vivo, (L.) Beau; details: rated 4-5 weeks after treatment
In short: as §1

SETVI (Setaria viridis) = assay: Preemergence herbicidal evaluation; type: in vivo, (L.) Beau; details: rated 4-5 weeks after treatment
In short: as §1

[15] = test system: AMBEL (Ambrosia artemisifolia); assay: Postemergence herbicidal evaluation; type: in vivo, L.; details: postemergence
In short: as §2

[16] = test system: CHEAL (Chenopodium album); assay: Postemergence herbicidal evaluation; type: in vivo, L.; details: postemergence
In short: as §2

[17] = test system: CASOB (Cassia obtusifolia); assay: Postemergence herbicidal evaluation; type: in vivo, L.; details: postemergence
In short: as §2

[18] = preemergence, rate 0.0620 kg/ha
[19] = preemergence, rate 0.1250 kg/ha
[20] = preemergence, rate 0.2500 kg/ha

`C[C@@H]1C[C@H](C)OC(c2nsc3ccc(-n4c(=O)cc(C(F)(F)F)n(C)c4=O)cc23)O1` (stereo partly drawn) [Compound 50, 3-[3-[(4R,6S)-4,6-dimethyl-m-dioxan-2-yl]-1,2-benzisothiazol-5-yl]-1-methyl-6-(trifluoromethyl)uracil] was tested, and the “Preemergence herbicidal rating AMBEL” value ([1]; Rate 0.0620 kg/ha) was 9.0, the “Preemergence herbicidal rating AMBEL” value ([1]; Rate 0.1250 kg/ha) was 9.0 and the “Preemergence herbicidal rating AMBEL” value ([1]; Rate 0.2500 kg/ha) was 9.0. For the same compound, the “Preemergence herbicidal rating CHEAL” value ([2]; Rate 0.0620 kg/ha) was 9.0, the “Preemergence herbicidal rating CHEAL” value ([2]; Rate 0.1250 kg/ha) was 9.0 and the “Preemergence herbicidal rating CHEAL” value ([2]; Rate 0.2500 kg/ha) was 9.0. The “Preemergence herbicidal rating CASOB” value ([3]; Rate 0.0620 kg/ha) was 5.5, the “Preemergence herbicidal rating CASOB” value ([3]; Rate 0.1250 kg/ha) was 6.5 and the “Preemergence herbicidal rating CASOB” value ([3]; Rate 0.2500 kg/ha) was 9.0. For the same compound, the “Preemergence herbicidal rating ABUTH” value ([4]; Rate 0.0620 kg/ha) was 9.0, the “Preemergence herbicidal rating ABUTH” value ([4]; Rate 0.1250 kg/ha) was 9.0 and the “Preemergence herbicidal rating ABUTH” value ([4]; Rate 0.2500 kg/ha) was 9.0. For the same compound, the ORYSAT herbicidal rating (ORYSAT (Rice, Tebonnet) [5]; rate 0.0320 kg/ha) was 5.5, the ORYSAT herbicidal rating (ORYSAT (Rice, Tebonnet) [5]; rate 0.0620 kg/ha) was 4.5 and the IPOHE herbicidal rating ([6]; rate 0.0320 kg/ha) was 9.0. For the same compound, the IPOHE herbicidal rating ([6]; rate 0.0620 kg/ha) was 9.0, the “Preemergence herbicidal rating GLXMAW” value ([7]; Rate 0.0620 kg/ha) was 7.5 and the “Preemergence herbicidal rating GLXMAW” value ([7]; Rate 0.1250 kg/ha) was 9.0. For the same compound, the “Preemergence herbicidal rating GLXMAW” value ([7]; Rate 0.2500 kg/ha) was 8.0, the “herbicidal rating, CYPIR” value (CYPIR (Cyperus iria); rate 0.0080 kg/ha) was 0.0 and the “herbicidal rating, CYPIR” value (CYPIR (Cyperus iria); rate 0.0320 kg/ha) was 7.5. For the same compound, the “herbicidal rating, CYPIR” value (CYPIR (Cyperus iria); rate 0.1250 kg/ha) was 8.0, the “Preemergence herbicidal rating TRZAWR” value ([8]; Rate 0.0620 kg/ha) was 7.0 and the “Preemergence herbicidal rating TRZAWR” value ([8]; Rate 0.1250 kg/ha) was 8.0. For the same compound, the “Preemergence herbicidal rating TRZAWR” value ([8]; Rate 0.2500 kg/ha) was 9.0, the GLXMAW herbicidal rating ([9]; rate 0.0320 kg/ha) was 7.5 and the GLXMAW herbicidal rating ([9]; rate 0.0620 kg/ha) was 7.5. For the same compound, the ABUTH herbicidal rating ([10]; rate 0.0320 kg/ha) was 9.0, the ABUTH herbicidal rating ([10]; rate 0.0620 kg/ha) was 9.0 and the “herbicidal rating, MOOVA” value ([11]; rate 0.0320 kg/ha) was 9.0. The “herbicidal rating, MOOVA” value ([11]; rate 0.1250 kg/ha) was 9.0, the “Preemergence herbicidal rating IPOHE” value ([12]; Rate 0.0620 kg/ha) was 8.0 and the “Preemergence herbicidal rating IPOHE” value ([12]; Rate 0.1250 kg/ha) was 7.5. The “Preemergence herbicidal rating IPOHE” value ([12]; Rate 0.2500 kg/ha) was 9.0, the “Preemergence herbicidal rating ZEAMX” value (ZEAMX (Corn, Field); Rate 0.0620 kg/ha) was 9.0 and the “Preemergence herbicidal rating ZEAMX” value (ZEAMX (Corn, Field); Rate 0.1250 kg/ha) was 9.0. For the same compound, the “Preemergence herbicidal rating ZEAMX” value (ZEAMX (Corn, Field); Rate 0.2500 kg/ha) was 9.0, the “herbicidal rating, ORYSAT (rice tolerance)” value (“herbicidal rating, ORYSAT” below) (ORYSAT (Rice, Tebonnet) [13]; rate 0.0080 kg/ha) was 3.0 and the “herbicidal rating, ORYSAT” value (ORYSAT (Rice, Tebonnet) [13]; rate 0.0320 kg/ha) was 6.5. The “herbicidal rating, ORYSAT” value (ORYSAT (Rice, Tebonnet) [13]; rate 0.1250 kg/ha) was 8.5, the “Preemergence herbicidal rating ECHCG” value ([14]; Rate 0.0620 kg/ha) was 9.0 and the “Preemergence herbicidal rating ECHCG” value ([14]; Rate 0.1250 kg/ha) was 9.0. For the same compound, the “Preemergence herbicidal rating ECHCG” value ([14]; Rate 0.2500 kg/ha) was 9.0, the “Preemergence herbicidal rating SETVI” value (SETVI (Setaria viridis); Rate 0.0620 kg/ha) was 9.0 and the “Preemergence herbicidal rating SETVI” value (SETVI (Setaria viridis); Rate 0.1250 kg/ha) was 9.0. For the same compound, the “Preemergence herbicidal rating SETVI” value (SETVI (Setaria viridis); Rate 0.2500 kg/ha) was 9.0, the AMBEL herbicidal rating ([15]; rate 0.0320 kg/ha) was 9.0 and the AMBEL herbicidal rating ([15]; rate 0.0620 kg/ha) was 9.0. For the same compound, the CHEAL herbicidal rating ([16]; rate 0.0320 kg/ha) was 8.0, the CHEAL herbicidal rating ([16]; rate 0.0620 kg/ha) was 9.0 and the CASOB herbicidal rating ([17]; rate 0.0320 kg/ha) was 5.0. For the same compound, the CASOB herbicidal rating ([17]; rate 0.0620 kg/ha) was 5.0.

`Cn1c(C(F)(F)F)cc(=O)n(-c2ccc3snc(-c4ccoc4)c3c2)c1=O` [Compound 83, 3-[3-(3-furyl)-1,2-benzisothiazol-5-yl]-1-methyl-6-(trifluoromethyl)uracil] was tested, and the “Preemergence herbicidal rating AMBEL” value [1, 18] was 6.0, the “Preemergence herbicidal rating AMBEL” value [1, 19] was 7.5 and the “Preemergence herbicidal rating AMBEL” value [1, 20] was 9.0. For the same compound, the “Preemergence herbicidal rating CHEAL” value [2, 18] was 4.0, the “Preemergence herbicidal rating CHEAL” value [2, 19] was 9.0 and the “Preemergence herbicidal rating CHEAL” value [2, 20] was 9.0. The “Preemergence herbicidal rating CASOB” value [3, 18] was 0.0, the “Preemergence herbicidal rating CASOB” value [3, 19] was 0.0 and the “Preemergence herbicidal rating CASOB” value [3, 20] was 1.0. For the same compound, the “Preemergence herbicidal rating ABUTH” value [4, 18] was 2.0, the “Preemergence herbicidal rating ABUTH” value [4, 19] was 7.5 and the “Preemergence herbicidal rating ABUTH” value [4, 20] was 9.0. The ORYSAT herbicidal rating (ORYSAT (Rice, Tebonnet) [5]; rate 0.0320 kg/ha) was 1.5, the ORYSAT herbicidal rating (ORYSAT (Rice, Tebonnet) [5]; rate 0.0620 kg/ha) was 3.0 and the IPOHE herbicidal rating ([6]; rate 0.0320 kg/ha) was 2.0. For the same compound, the IPOHE herbicidal rating ([6]; rate 0.0620 kg/ha) was 4.0, the “Preemergence herbicidal rating GLXMAW” value [7, 18] was 0.0 and the “Preemergence herbicidal rating GLXMAW” value [7, 19] was 2.5. For the same compound, the “Preemergence herbicidal rating GLXMAW” value [7, 20] was 6.0, the “herbicidal rating, CYPIR” value (CYPIR (Cyperus iria); rate 0.0080 kg/ha) was 0.0 and the “herbicidal rating, CYPIR” value (CYPIR (Cyperus iria); rate 0.0320 kg/ha) was 0.0. The “herbicidal rating, CYPIR” value (CYPIR (Cyperus iria); rate 0.1250 kg/ha) was 3.0, the “Preemergence herbicidal rating TRZAWR” value [8, 18] was 3.0 and the “Preemergence herbicidal rating TRZAWR” value [8, 19] was 4.0. The “Preemergence herbicidal rating TRZAWR” value [8, 20] was 5.0, the GLXMAW herbicidal rating ([9]; rate 0.0320 kg/ha) was 4.0 and the GLXMAW herbicidal rating ([9]; rate 0.0620 kg/ha) was 6.0. For the same compound, the ABUTH herbicidal rating ([10]; rate 0.0320 kg/ha) was 6.0, the ABUTH herbicidal rating ([10]; rate 0.0620 kg/ha) was 9.0 and the “herbicidal rating, MOOVA” value ([11]; rate 0.0080 kg/ha) was 0.0. The “herbicidal rating, MOOVA” value ([11]; rate 0.0320 kg/ha) was 9.0, the “herbicidal rating, MOOVA” value ([11]; rate 0.1250 kg/ha) was 9.0 and the “Preemergence herbicidal rating IPOHE” value [12, 18] was 3.0. The “Preemergence herbicidal rating IPOHE” value [12, 19] was 5.0, the “Preemergence herbicidal rating IPOHE” value [12, 20] was 5.5 and the “Preemergence herbicidal rating ZEAMX” value (ZEAMX (Corn, Field); [18]) was 3.0. The “Preemergence herbicidal rating ZEAMX” value (ZEAMX (Corn, Field); [19]) was 5.0, the “Preemergence herbicidal rating ZEAMX” value (ZEAMX (Corn, Field); [20]) was 6.0 and the “herbicidal rating, ORYSAT” value (ORYSAT (Rice, Tebonnet) [13]; rate 0.0080 kg/ha) was 0.0. For the same compound, the “herbicidal rating, ORYSAT” value (ORYSAT (Rice, Tebonnet) [13]; rate 0.0320 kg/ha) was 2.0, the “herbicidal rating, ORYSAT” value (ORYSAT (Rice, Tebonnet) [13]; rate 0.1250 kg/ha) was 2.0 and the “Preemergence herbicidal rating ECHCG” value [14, 18] was 2.0. The “Preemergence herbicidal rating ECHCG” value [14, 19] was 6.5, the “Preemergence herbicidal rating ECHCG” value [14, 20] was 9.0 and the “Preemergence herbicidal rating SETVI” value (SETVI (Setaria viridis); [18]) was 6.0. For the same compound, the “Preemergence herbicidal rating SETVI” value (SETVI (Setaria viridis); [19]) was 9.0, the “Preemergence herbicidal rating SETVI” value (SETVI (Setaria viridis); [20]) was 9.0 and the AMBEL herbicidal rating ([15]; rate 0.0320 kg/ha) was 2.0. For the same compound, the AMBEL herbicidal rating ([15]; rate 0.0620 kg/ha) was 6.0, the CHEAL herbicidal rating ([16]; rate 0.0320 kg/ha) was 3.0 and the CHEAL herbicidal rating ([16]; rate 0.0620 kg/ha) was 6.0. It also gave a CASOB herbicidal rating ([17]; rate 0.0320 kg/ha) of 4.0 and a CASOB herbicidal rating ([17]; rate 0.0620 kg/ha) of 6.0.

Reference: patent US6706663B2, “Herbicidal 3-heterocyclic substituted benzisothiazole and benzisoxazole compounds” (Wyeth, priority 2000, dated 2004)
